In PubChem BioAssay AID1626 (SRMLSC, 2009) one finds IC50, IC90 and CC50 data, which are given here for 64 molecules.

This experiment relates to M. tuberculosis H37Rv growth inhibition. Description: M. tuberculosis H37Rv growth inhibitors, H37Rv strain (AID 1626). The settings on record: for IC90: measured here: IC90 against H37Rv; for CC50: measured here: Vero cell cytotoxicity.

A value given as a limit tells only on which side of the number the result lay.

As a reminder, the IC50 is the midpoint of a concentration-inhibition curve. Usually IC90 stands for the point of the concentration-response curve where the effect stands at 90%. On to `Cc1ccc(-c2c[n+](CC(=O)Nc3nc(-c4ccc(F)cc4)cs3)c3n2CCC3)cc1`, for which the IC50 is 4.87 µM and the IC90 was determined as 7.09 µM.
The term CC50 denotes the concentration that lowers cell viability or growth by half. High values mean lower toxicity to the cells, low ones greater toxicity to the cells. Consider `COc1cccc2sc(Nc3nc(-c4ccccn4)cs3)nc12`, for which the IC50 was < 0.195 µM, the 90% effect concentration (IC90) is < 0.195 µM and the CC50 was 1.92 µM.
In the case of `Cc1ccc(C)c(-c2cc(C(=O)Nc3nccs3)c3ccccc3n2)c1`, the IC50 was 8.18 µM and the IC90 came to 11.3 µM.
Turning to `Cc1c(CN2CCC(CO)(CCOc3ccccc3)CC2)[nH]c2ccc(Cl)cc12`, the IC50 was 4.57 µM, the IC90 turned out to be 5.33 µM and the CC50 came to 15.6 µM.
The like results for `Cc1cc(=O)[nH]c(-n2nc(C)cc2C)n1` were, in that order, 1.42 µM, 2.43 µM and > 40 µM.
The like results for `Cc1ccc(-n2cc(CN(C)Cc3nccn3C)c(-c3cccc(C)c3)n2)cc1` were, in that order, 9.75 µM, 15.9 µM and > 40 µM.
For `COC(=O)CSc1nnc(-c2ccc(NS(=O)(=O)c3ccccc3)cc2)o1`, the IC50 was 1.9 µM and the IC90 turned out to be 5.72 µM.
On the same counts, the results for `O=C(CSc1nc2cc(Cl)ccc2o1)NCCc1ccccc1` are < 0.391 µM and 1.09 µM.
For `COc1ccc(-c2csc(NC(C)c3nc4cc(Cl)c(N5CCCCC5)cc4n3CCOCCO)n2)cc1` (centres undefined), the IC50 was 7.74 µM, the concentration for an effect of 90% (IC90) was > 100 µM and the CC50 is > 40 µM.
With `O=C(C[n+]1cc(-c2ccc(Cl)c(Cl)c2)n2c1CCC2)N1c2ccccc2Sc2ccccc21`, the half-maximal inhibitory concentration (IC50) is 12.2 µM and the concentration for an effect of 90% (IC90) was determined as 13.9 µM.
For the molecule `O=C1N=C(N2CCN(c3cccc4ccccc34)CC2)S/C1=C/c1cccs1`, the CC50 was > 40 µM.
In the case of `COC(=O)CSc1ccc2c(N)c(C(=O)OC)sc2c1`, the IC50 was 1.68 µM and the IC90 came out at 2.82 µM.
With `CSc1ccc(N=Nc2c(C)[nH]n(C)c2=O)cc1`, the IC50 is 7.43 µM, the IC90 was > 100 µM and the CC50 is > 40 µM.
The like results for `CCC(=Nc1ccccc1O)C1=C(O)CC(c2ccccc2)CC1=O` (centres undefined) were, in that order, 1.51 µM, 1.72 µM and > 40 µM.
Regarding `Cn1c(O)c(C=Nc2ccccc2-c2ccccc2)c(=O)n(C)c1=O`, the CC50 was > 40 µM.
As for `CCOC(=O)c1cnc(-n2nc(C)cc2C)nc1Nc1ccc(N(C)C)cc1`, the 50% inhibitory concentration (IC50) was < 0.195 µM, the IC90 is < 0.195 µM and the CC50 was found to be 23.9 µM.
Take `O=C(CCl)Oc1ccc2occ(C(=O)c3cccs3)c2c1`: the IC90 was > 100 µM.
With `Cc1sc2nc(CN(C(=O)NC3CCCCC3)C3CCCC3)[nH]c(=O)c2c1C`, the IC50 is 6.11 µM, the IC90 turned out to be 26.3 µM and the CC50 is > 40 µM.
On the same counts, the results for `Cn1c(NCc2ccccc2)nc2c1c(=O)n(Cc1ccc(Br)cc1)c(=O)n2C` are 13.8 µM, > 100 µM and > 40 µM.
As to `CSc1ccc(/C=C/C(=O)c2ccc(O)cc2)cc1`, the IC50 was 9.87 µM, the IC90 was 13.7 µM and the CC50 came out at 30.7 µM.
For the molecule `CCOC(=O)Cc1csc(NC(=O)c2csc3c2CCCC3)n1`, the IC50 is 9.18 µM, the IC90 was 12.5 µM and the CC50 was > 40 µM.
Take `CCCC(=O)OCCNc1cc(SCc2ccco2)c2nonc2c1[N+](=O)[O-]`: the IC50 was 4.2 µM and the IC90 came out at 9.07 µM.
Consider `O=C(OCc1ccc(F)cc1)c1ccc2ccccc2n1`, for which the IC50 was 8.16 µM and the IC90 turned out to be 14.4 µM.
As to `Cc1ccc(Sc2cc(C)nc(-c3ccccn3)n2)cc1`, the IC50 was 2.26 µM, the IC90 turned out to be 15.7 µM and the 50% cytotoxic concentration (CC50) stood at 10.8 µM.
The like results for `O=C(Nc1nc2ccc(F)cc2s1)c1ccccn1` were, in that order, < 0.195 µM, 0.248 µM and 3.01 µM.
On the same counts, the results for `Cc1ccc(C(=O)/C=C/C(=O)c2ccc(C)cc2)cc1` are 5.49 µM, 9.24 µM and > 40 µM.
The like results for `CCCCCCCCCCn1c2c(c(=N)c3c1CCC3)CCC2` were, in that order, 2.42 µM, 3.59 µM and 6.09 µM.
With `Cc1ccc(-c2c[n+](CC(=O)Nc3nc(-c4ccccc4)cs3)c3n2CCC3)cc1`, the IC50 was 7.81 µM and the IC90 stood at 16.1 µM.
`C=CCn1c(O)c(C(C)=Nc2ccc(C(=O)OCC)cc2)c(=O)[nH]c1=O`: the concentration for half-maximal inhibition (IC50) is 14 µM and the concentration for an effect of 90% (IC90) is > 100 µM.
As for `CCCCn1c(=O)c(C(=O)Nc2cnccn2)c(O)c2ccccc21`, the IC50 was 5.79 µM, the IC90 came out at 6.45 µM and the CC50 was 18.2 µM.
On the same counts, the results for `COc1cc(CNC(C)c2ccccc2)cc(Cl)c1OCC(=O)Nc1ccccc1` (centres undefined) are 3.1 µM, 3.39 µM and > 40 µM.
The like results for `CCN(Cc1nc2ccccc2c(=O)[nH]1)Cc1nc2ccsc2c(=O)[nH]1` were, in that order, 15.8 µM, > 100 µM and > 40 µM.
With `Nc1nc(-c2ccc(F)cc2)cs1`, the IC50 was 23.8 µM and the IC90 is > 100 µM.
For the molecule `Cc1ccc(-c2noc(CCC(=O)NCCCN3CCN(c4cccc(Cl)c4)CC3)n2)cc1`, the IC50 was 9.9 µM, the IC90 is 13.2 µM and the CC50 is > 40 µM.
With `Nc1ccc2c(c1)oc1ccccc12`, the IC50 was 1.96 µM and the IC90 is > 100 µM.
As for `COC(=O)c1ccnc(SCC(=O)c2ccccc2)c1`, the IC50 is 15.8 µM and the IC90 was 26.6 µM.
The like results for `COC(=O)CSc1nc2ccccc2nc1SCC(=O)OC` were, in that order, 4.87 µM and 12.5 µM.
Regarding `Cc1cccc(N2CCN(C(=O)c3ccc4nc(N5CCCCC5)sc4c3)CC2)c1C`, the IC50 is 7.98 µM, the IC90 turned out to be 11.2 µM and the CC50 was > 40 µM.
Take `CCCOC(=O)c1ccc(NC(=O)Oc2ccccc2)cc1`: the IC50 is 4.53 µM and the IC90 was > 100 µM.
`Oc1ccccc1N=Cc1ccc[nH]1`: the IC50 was 3.04 µM, the IC90 was 6.39 µM and the CC50 was > 40 µM.
On the same counts, the results for `Fc1ccc(C(OCCN2CCN(CCCc3ccccc3)CC2)c2ccc(F)cc2)cc1` are 4.22 µM, 5.59 µM and 19.2 µM.
With `COC(=O)C1C(O)=C(C=Nc2ccc3ccccc3c2)C(=O)CC1(C)C` (centres undefined), the IC50 is 33.7 µM and the IC90 was > 100 µM.
On the same counts, the results for `Cc1cccc(-c2nsc(SCC(=O)NCC3CCCO3)n2)c1` (centres undefined) are 1.19 µM and 4.2 µM.
Consider `C/C(=C\C(=S)Nc1ccccc1)Nc1ccc2ccccc2c1`, for which the half-maximal inhibitory concentration (IC50) was 4.39 µM, the IC90 was 48.9 µM and the CC50 is > 40 µM.
`COC(=O)c1nc(-c2ccc3c(n2)C(=O)C(N)=C(OC)C3=O)c(N)c(-c2ccc(OC)c(OC)c2O)c1C`: the IC90 is > 100 µM and the CC50 worked out at 1.35 µM.
Consider `Cc1ccc(Sc2ccc(C=C3C(=O)N(C)C(=O)N(C)C3=O)o2)cc1`, for which the IC50 is 7.56 µM and the IC90 turned out to be 20.8 µM.
With `CN(C)CCCN(C(=O)CCc1ccccc1)c1nc2ccc(Br)cc2s1`, the IC50 is 22.5 µM, the IC90 was 24.2 µM and the CC50 stood at 16.7 µM.
In the case of `O=C(NCCC1=CCCCC1)NC12CC3CC(CC(C3)C1)C2`, the IC50 was < 0.195 µM and the IC90 is 67.6 µM.
Regarding `COc1ccc(-c2oc3ncn(Cc4ccco4)c(=N)c3c2-c2ccc(OC)cc2)cc1`, the IC50 is 8.35 µM, the IC90 stood at 13.9 µM and the CC50 was determined as 23.7 µM.
On the same counts, the results for `O=c1[nH][nH]c(-c2ccccc2O)c1C(C[N+](=O)[O-])c1ccc(Br)cc1` (centres undefined) are 11.2 µM, 24.5 µM and 18.2 µM.
On to `O=c1cc(-c2c(F)c(F)c(F)c(F)c2F)oc2ccccc12`, for which the half-inhibitory concentration (IC50) is 0.221 µM, the IC90 amounted to 2.3 µM and the CC50 is > 40 µM.
The like results for `CCOc1ccc(-c2csc(/C(C#N)=C\c3ccc(O)c([N+](=O)[O-])c3)n2)cc1` were, in that order, 8.54 µM, 14.9 µM and 10.9 µM.
Regarding `COc1ccc(NC(C#N)c2ccc(OC)cc2)cc1` (centres undefined), the IC90 was > 100 µM.
Same read-out and setting: then `COC(=O)Cc1ccc(NC(=O)c2ccc(Br)o2)cc1`, with > 100 µM.
Take `O=c1c(O)c(-c2cccs2)oc2ccc(Cl)cc12`: the IC50 was 9.53 µM, the IC90 was > 100 µM and the CC50 was > 40 µM.
On the same counts, the results for `CCc1nnc(NC(=O)c2ccc3ccccc3n2)s1` are 12.1 µM, > 100 µM and > 40 µM.
The like results for `CCOC(=O)c1ccc2ncc(C(=O)OCC)c(Nc3ccc(N4CCOCC4)cc3)c2c1` were, in that order, 10.9 µM, 22.7 µM and > 40 µM.
With `Cc1[nH]c2ccccc2c1C(=O)COC(=O)c1ccc([N+](=O)[O-])s1`, the cytotoxic concentration (CC50) turned out to be 31.8 µM.
Consider `Clc1ccc(-n2nnnc2Sc2ncnc3sccc23)cc1`, for which the IC50 was 63.4 µM, the IC90 is > 100 µM and the CC50 turned out to be 10.5 µM.
The like results for `O=C(Nc1nnc(-c2ccc(F)cc2)o1)c1cccc([N+](=O)[O-])c1` were, in that order, 5.68 µM, 14.8 µM and 12.4 µM.
The like results for `CN1/C(=C/C(=O)c2nc(S(C)(=O)=O)ncc2Cl)C(C)(C)c2ccccc21` were, in that order, 12 µM, 13.7 µM and > 40 µM.
On the same counts, the results for `O=C(Nc1ccn(Cc2ccccc2F)n1)c1ccc(COc2ccc(Cl)cc2Cl)o1` are 33.9 µM, > 100 µM and > 40 µM.
Turning to `O=C(c1cc2nc(-c3ccccc3)cc(-c3ccccc3)n2n1)N1CCN(C(=O)c2ccco2)CC1`, the IC50 was 5.92 µM, the concentration for an effect of 90% (IC90) is 17.6 µM and the 50% cytotoxic concentration (CC50) was > 40 µM.
In the case of `C#CCOCCOCCOCCNc1nc(N2CCN(C(=O)[C@H](Cc3cc4ccccc4[nH]3)n3cc([C@@H](N)CC(C)C)nn3)CC2)nc(N2CCN(C(=O)[C@H](Cc3cc4ccccc4[nH]3)n3cc([C@@H](N)CC(C)C)nn3)CC2)n1`, the IC50 was 4.23 µM and the concentration for an effect of 90% (IC90) is 7.58 µM.
